The format of the series is in vivo, C57BL/6 mice. The source says: To investigate the toxicity induced by the HSV-tk/GCV system, each group of ten C57BL/6 mice received a tail vein injection of AdCMV TK (10^9 pfu), Adcox2LTK (10^9 pfu) or phosphate-buffered saline on day 0. […] The mice were sacrificed on day 6 and the blood samples were collected to analyze total bilirubin, alanine aminotransferase (ALT), aspartate aminotransferase (AST) an d lactate dehydrogenase (LDH) at a veterinary laboratory (ANTECH Diagnostics, Farmingdale, N.Y.). For histopathological analysis, the major organs were fixed with 10% buffered formaldehyde, paraffin-embedded and cut in to 4 μm section, followed by deparaffinization and staining with hematoxylin and eosin.

With `Nc1nc(O)c2ncn(COC(CO)CO)c2n1` [GCV, ganciclovir], for the setting “only GCV, without virus”, the “serum samples (total bilirubin, ALT, AST, LDH)” value is recorded as “did not show abnormality”. Also, the “liver histology (H and E)” value (without virus administration) is listed as “appeared almost normal”.

For the origin of these results see patent US20020107219A1, “Adenoviral vector containing cyclooxygenase-2 promoter and uses thereof” (priority 2000, published 2002).
